Experimental data taken from US8044034B2, “Nanoparticle derivatives of gemcitabine” (Centre National de la Recherche Scientifique (C.N.R.S.), priority 2004, dated 2011).
Read-outs that look alike come from different tables or passages of the source.

What was measured:
[1] = Nanoparticle size by quasi-elastic light diffusion (Coulter N4MD nanosizer); type: physicochemical
Experimental: The size of the colloidal particles obtained in example 1 were monitored by quasi-elastic light diffusion using a nanosizer (Coulter® N4MD, Coulter Electronics, Hialeah, USA).
The colloidal suspensions were diluted in MilliQ® water so that the number of particles per ml was suitable for the measuring device.

KB3-1 = assay: Cytotoxic activity, MTT test, 72 hours exposure; type: cell-based, human; conditions: for IC50: KB3-1 cells, 72 hours, MTT test, concentration at which 50% of the cells are alive, read-out: CI50 (μM) after 72 hours KB3-1
Experimental: (§1) The cytotoxic activity of SQgem was evaluated on two human tumoral cell lines (KB3-1, cancer of the naso-pharynx and MCF-7, breast cancer) by exposure to SQgem for 72 hours, and compared with the activity of gemcitabine.
(§2) The lines were maintained in DMEM medium with 10% foetal calf serum, 2 mM glutamine, 50 mg/l antibiotics, at 37° C., 5% CO2, 95% humidity. The cells were seeded onto a 96 well plate in an amount of 1×10^4/well; after 24 hours, different dilutions of gemcitabine and SQgem particle were added and incubated for 72 hours. Cellular viability was then determined by the MTT test. The results are expressed as CI50, which is the concentration of the molecule at which 50% of the cells are alive.

MCF-7 = assay: Cytotoxic activity, MTT test, 72 hours exposure; type: cell-based, human; conditions: concentration at which 50% of the cells are alive, read-out: CI50 (μM) after 72 hours MCF-7
Experimental: as §1, §2

two cell lines = assay: Cytotoxic activity at different times in the presence and absence of inserts (MTT test); type: cell-based, human; conditions: 100 μM SQgem nanoparticles, inserts 0.02 μm, n=3
Experimental: The cytotoxic activity of SQgem at different times was also determined by incubating 100 μM SQgem nanoparticles on two cell lines in the presence and absence of inserts (0.02 μm) (MTT test) (n=3).

[2] = Surface tension at constant surface area (Wilhemy blade tensometer); type: physicochemical; conditions: aqueous solution with 10% ethanol
Experimental: The surface tension of an aqueous SQgem solution was measured at constant surface area at different concentrations using a Wilhemy blade tensometer and compared with that of a solution of gemcitabine (Gem) and 4-(N)-stearoylgemcitabine (C18gem) (Myhren F et al, Gemcitabine derivatives, US patent no. 2002/0042391).
To prepare the various dilutions of SQgem and C18gem, it was necessary to start from an ethanolic solution; the percentage of ethanol in the final solution was 10% (the presence of ethanol reduces the surface tension of water from 72 mN/m to about 50 mN/m).

[3] = concentration in final suspension 1 mg/ml
[4] = concentration in final suspension 2 mg/ml
[5] = concentration in final suspension 4 mg/ml

## 4-(N)-squalenoyl acyclovir [SQACV]
[1]; [3]
  Mean hydrodynamic diameter (nm): 217.5 ± 37.9 nm
  Polydispersity index: 0.038

## CC(C)=CCCC(C)=CCCC(C)=CCCC=C(C)CCC=C(C)CCC(=O)OC[C@@H]1CC[C@H](n2cnc3c(=O)[nH]cnc32)O1 [5′-squalenoyl-didanosine]
[1]; concentration not given
  Mean hydrodynamic diameter / size of the nanoparticles: 152 nm
  Polydispersity index: 0.1

## CC(C)=CCCC(C)=CCCC(C)=CCCC=C(C)CCC=C(C)CCC(=O)OC[C@H]1O[C@@H](n2cc(C)c(=O)[nH]c2=O)C[C@@H]1N=[N+]=[N-] [5′-squalenoyl-zidovudine, 3-azido-5-(5-methyl-2,4-dioxo-3,4-dihydro-2H-pyrimidin-1-yl)-tetrahydro-furan-2-yl-methyl (2S,3S,5R)-4,8,13,17,21-pentamethyl-docosa-4,8,12,16,20-pentaenoate]
[1]; concentration not given
  Mean hydrodynamic diameter / size of the nanoparticles: 150-170 nm

## Nc1ccn([C@@H]2O[C@H](CO)[C@@H](O)C2(F)F)c(=O)n1 [Gemcitabine, 2′,2′-difluoro-2′-deoxycytidine]
KB3-1; Homo sapiens, KB 3-1
  IC50: 50.8 ± 49.8 µM
MCF-7; Homo sapiens, MCF7, MCF-7 cells
  IC50: 29 ± 13.9 µM

## CC(C)=CCCC(C)=CCCC(C)=CCCC=C(C)CCC=C(C)CCC(=O)Nc1ccn([C@@H]2O[C@H](CO)[C@@H](O)[C@@H]2O)c(=O)n1 [SQara-C, 4-(N)-squalenoylcytarabine]
[1]; [3]
  Mean hydrodynamic diameter (nm): 110.4±34.1 nm
  Polydispersity index: 0.168

## CC(C)=CCCC(C)=CCCC(C)=CCCC=C(C)CCC=C(C)CCC(=O)Nc1ccn([C@@H]2O[C@H](CO)[C@@H](O)C2(F)F)c(=O)n1 [SQgem, 4-(N)-squalenoylgemcitabine]
KB3-1
  IC50: 8.8 ± 4.1 µM
KB3-1; from CI50 on KB3-1 and MCF-7, 72 hours
  times more cytotoxic than the gemcitabine molecule: five to seven times more toxic
MCF-7; MCF-7 cells
  IC50: 4.8 ± 3.9 µM
Two cell lines
  anti-cancer activity with inserts with respect to cytotoxicity tests in the absence of an insert: not reduced
[1]; [3]
  Mean hydrodynamic diameter (nm): 126.2 nm
  Polydispersity index: 0.26
[1]; [4]
  Mean hydrodynamic diameter (nm): 150.4 nm
  Polydispersity index: 0.09
[1]; [5]
  Mean hydrodynamic diameter (nm): 171.3 nm
  Polydispersity index: 0.08
[2]
  concentration at which the surface tension is reduced (nanoparticle formation): 4 µM
